# Measurements published in publication PMC11784839, “Monoaminergic neurotransmitters are bimodal effectors of tau aggregation” (Science Advances, 2025).
# Target: tau (Homo sapiens, UniProt P10636)
# Assay: MCE Phenols Library screening, tau biosensor cell seeding assay (AvZ)
# Type: cell-based
# Details: for Z repl 1 / Z Repl 2: Z score; for Z repl 1 / raw data 1: replicate 1; for Z Repl 2 / raw data 2: replicate 2; for AvZ (average z score of seeding, SDs from the mean level of seeding): 10 μM phenol in cell cultures, AD brain homogenate preincubated 16 hours, two biological replicates, positive = catalyzes seeding, negative = inhibits
# [1] = average Z score of the two replicates, tau biosensor seeding, MCE Phenols Library screen
# [2] = average Z score of two replicates, Phenols Library screen
# [3] = average Z score of the two replicates, MCE Phenols Library screen
# [4] = average puncta of the two replicates
# [5] = average Z score of the two replicates, tau seeding
# Sequence of tau (P10636 623-695 limits assumed): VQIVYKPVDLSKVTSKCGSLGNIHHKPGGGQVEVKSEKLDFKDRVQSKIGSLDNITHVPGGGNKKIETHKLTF
SMILES,Z repl 1,Z Repl 2,av Z [1],av puncta (average of raw data 1 and 2),raw data 1 (puncta),raw data 2 (puncta),av Z [2],av Z [3],"AvZ (average z score of seeding, SDs from the mean level of seeding)",av puncta [4],raw data 1 (raw puncta),raw data 2 (raw puncta),av Z [5]
Oc1cc(O)c2c(c1)O[C@H](c1ccc(O)c(O)c1)[C@H](O)[C@H]2c1c(O)cc(O)c2c1O[C@H](c1ccc(O)c(O)c1)[C@H](O)[C@H]2c1c(O)cc(O)c2c1O[C@H](c1ccc(O)c(O)c1)[C@H](O)C2 [Procyanidin C1],0.76,1.6,1.18,32664.3,35473.6,29854.9,,,,,,,
COc1ccc(CCC(=O)c2ccc(O)cc2)c(OC)c1 [Loureirin A],-0.527,0.435,,18718.9,20023.7,17414.1,-0.046,,,,,,
O=C1c2c(O)cc(O)cc2O[C@H](c2cc(O)c(O)c(O)c2)[C@H]1O [Dihydromyricetin],-1.346,-0.885,,,10190.2,3319.03,,-1.115,,,,,
O=C(/C=C/c1ccc(O)c2c1[C@H](C(=O)O)[C@@H](c1ccc(O)c(O)c1)O2)O[C@H](Cc1ccc(O)c(O)c1)C(=O)O [Lithospermic acid],-1.337,-0.834,,7079.11,10304.3,3853.96,,-1.085,,,,,
COc1cc(/C=C/C(=O)OCC[N+](C)(C)C)cc(OC)c1O.N#C[S-] [Sinapine (thiocyanate)],0.104,-0.095,,19676.8,27602.3,11751.4,,,0.005,,,,
CCCCCCCCC/C=C/C(=O)CCc1ccc(O)c(OC)c1 [10-Shogaol],,,,,,,,,-0.507,,,,
O=C(/C=C/c1ccc(O)c(O)c1)O[C@@H]1C[C@@](O)(C(=O)O)C[C@@H](O)[C@@H]1O [Neochlorogenic acid],-0.752,-0.408,,,17326.7,8413.44,,-0.58,,12870.1,,,
O=C(O)C(O)Cc1ccc(O)cc1 (centres unmarked) [Hydroxyphenyllactic acid],-0.248,0.325,,19806.4,23372.2,16240.5,,,0.039,,,,
CC[C@@]1(O)C(=O)OCc2c1cc1n(c2=O)Cc2cc3cc(O)ccc3nc2-1 [(S)-10-Hydroxycamptothecin],1.738,1.796,1.767,39581.6,47219.2,31944.1,,,,,,,
COc1ccc2cc3[n+](cc2c1O)CCc1cc2c(cc1-3)OCO2.[Cl-] [Berberrubine (chloride)],0.031,-0.189,,18734.2,26719.5,10748.8,-0.079,,,,,,
CCCCC[C@H](O)CC(=O)CCc1ccc(O)c(OC)c1 [6-Gingerol],,,,,,,,,0.629,,,,
COC(=O)c1cc(O)c(O)c(O)c1 [Methyl gallate],-1.727,-0.895,,4412,5612.12,3211.88,,,-1.311,,,,
OCCc1ccccc1 [2-Phenylethanol],1.167,0.175,,27499.2,40362.2,14636.1,,,0.671,,,,
O=C(O)[C@H](O)Cc1ccc(O)c(O)c1 [Danshensu],-0.37,-1.076,,,21904.2,1269.24,,,-0.723,11586.7,,,
CCc1c(Cl)c(O)c(Cl)c(O)c1C(=O)O[C@H]1[C@H](O)[C@H](OC)[C@H](OC/C2=C\C=C\C[C@H](O)/C(C)=C/[C@H](CC)[C@@H](O[C@@H]3OC(C)(C)[C@@H](OC(=O)C(C)C)[C@H](O)[C@@H]3O)/C(C)=C/C(C)=C/C[C@@H]([C@@H](C)O)OC2=O)O[C@@H]1C [Fidaxomicin],0.356,0.717,,25523.7,30618.6,20428.7,,,,,,,0.537
COc1ccc2cc3[n+](cc2c1OC)CCc1cc(O)c(O)cc1-3 [Demethyleneberberine],-0.088,-0.204,,17943.1,25297.3,10588.9,-0.146,,,,,,
COc1cc(C(=O)O)cc(OC)c1O [Syringic acid],0.138,0.027,,20525.8,28000.6,13051.1,,,0.082,,,,
O=C1c2ccccc2C(=O)c2c1cc(O)c(CO)c2O [Lucidin],0.331,-0.667,,17984.5,30325.1,5643.99,-0.168,,,,,,
COc1cc(CC(C)C(C)Cc2ccc(O)c(OC)c2)ccc1O (centres unmarked) [Dihydroguaiaretic acid],-0.958,-0.625,,10465.9,14843.2,6088.67,,-0.792,,,,,
"C[C@@H]1O[C@@H](O[C@@H]2[C@@H](O)[C@H](O)[C@@H](CO)O[C@H]2c2c(O)cc(O)c3c(=O)cc(-c4ccc(O)cc4)oc23)[C@H](O)[C@H](O)[C@H]1O [Vitexin-2""-O-rhamnoside]",0.246,-0.753,,,,,,-0.253,,17015.1,29301.6,4728.59,
"O=C(C=Cc1ccc(O)c(O)c1)OC1CC(OC(=O)C=Cc2ccc(O)c(O)c2)(C(=O)O)CC(O)C1O (centres unmarked) [1,3-Dicaffeoylquinic acid]",-1.077,-0.588,,9954.06,13417.7,6490.43,,-0.832,,,,,
COc1cc(O)c2c(=O)c(-c3ccc(O)cc3)coc2c1 [Prunetin],3.008,2.297,2.652,49877.5,62461.3,37293.6,,,,,,,

# Now from value to compound:
Z repl 1,Z Repl 2,av Z [1],av puncta (average of raw data 1 and 2),raw data 1 (puncta),raw data 2 (puncta),av Z [2],av Z [3],"AvZ (average z score of seeding, SDs from the mean level of seeding)",av puncta [4],raw data 1 (raw puncta),raw data 2 (raw puncta),av Z [5],SMILES
0.816,0.967,0.892,29624.1,36150,23098.1,,,,,,,,COc1ccc(-c2cc(=O)c3c(O)c(OC)c(OC)c(OC)c3o2)cc1 [Gardenin B]
0.56,0.239,,24195.2,33071.8,15318.5,,,0.399,,,,,CC(C)(O)CCc1c(O)cc(O)c2c(=O)c(O)c(-c3ccc(O)cc3)oc12 [Noricaritin]
-2.129,-1.129,,747.252,787.042,707.463,,-1.629,-1.63,,,,,O=c1c(O)c(-c2ccc(O)cc2)oc2c(O)c(O)cc(O)c12 [Herbacetin]
-0.018,-0.542,,,,,,-0.28,,16558.4,26137.6,6979.18,,O=c1oc2cc(O)ccc2c2oc3cc(O)ccc3c12 [Coumestrol]
,,,,,,,,,16957.6,27554,6361.09,,O=c1c(-c2ccc(O)cc2)coc2cc(O)ccc12 [Daidzein]
1.412,0.928,1.17,32989.2,43302.3,22676,,,,,,,,"O=c1cc(-c2ccccc2)oc2c(O)c(O)ccc12 [7,8-Dihydroxyflavone]"
0.9,-0.094,,24460.4,37158.3,11762.4,,,,,,,0.403,C[C@@H]1O[C@@H](O[C@H]2[C@H](Oc3cc(O)c4c(=O)cc(-c5ccc(O)cc5)oc4c3)O[C@H](CO)[C@@H](O)[C@@H]2O)[C@H](O)[C@H](O)[C@H]1O [Rhoifolin]
0.632,-0.232,,22113,33940.8,10285.2,,,,,,,0.2,O=c1cc(-c2ccc(O)cc2)oc2c([C@@H]3O[C@H](CO)[C@@H](O[C@@H]4O[C@H](CO)[C@@H](O)[C@H](O)[C@H]4O)[C@H](O)[C@H]3O)c(O)cc(O)c12 [Vitexin-4''-O-glucoside]
-0.87,-0.309,,,15910.5,9468.24,,-0.589,,12689.4,,,,O=c1cc(-c2ccc(O)c(-c3c(O)cc(O)c4c(=O)cc(-c5ccc(O)cc5)oc34)c2)oc2cc(O)cc(O)c12 [Amentoflavone]
0.183,-0.42,,18414.7,28546.2,8283.25,-0.118,,,,,,,COc1ccc(CCO[C@@H]2O[C@H](CO[C@@H]3O[C@H](CO)[C@H](O)[C@H](O)[C@H]3O)[C@@H](OC(=O)/C=C/c3ccc(O)c(OC)c3)[C@H](O[C@@H]3O[C@@H](C)[C@H](O)[C@@H](O)[C@H]3O)[C@H]2O)cc1O [Jionoside B1]
